Tests used:
GR = molecular target: T1, GR (Homo sapiens, UniProt P04150); assay: GR antagonist assay (GRE-LUC luciferase reporter, with 0.1 nM dexamethasone)
T1 sequence (P04150 1-777): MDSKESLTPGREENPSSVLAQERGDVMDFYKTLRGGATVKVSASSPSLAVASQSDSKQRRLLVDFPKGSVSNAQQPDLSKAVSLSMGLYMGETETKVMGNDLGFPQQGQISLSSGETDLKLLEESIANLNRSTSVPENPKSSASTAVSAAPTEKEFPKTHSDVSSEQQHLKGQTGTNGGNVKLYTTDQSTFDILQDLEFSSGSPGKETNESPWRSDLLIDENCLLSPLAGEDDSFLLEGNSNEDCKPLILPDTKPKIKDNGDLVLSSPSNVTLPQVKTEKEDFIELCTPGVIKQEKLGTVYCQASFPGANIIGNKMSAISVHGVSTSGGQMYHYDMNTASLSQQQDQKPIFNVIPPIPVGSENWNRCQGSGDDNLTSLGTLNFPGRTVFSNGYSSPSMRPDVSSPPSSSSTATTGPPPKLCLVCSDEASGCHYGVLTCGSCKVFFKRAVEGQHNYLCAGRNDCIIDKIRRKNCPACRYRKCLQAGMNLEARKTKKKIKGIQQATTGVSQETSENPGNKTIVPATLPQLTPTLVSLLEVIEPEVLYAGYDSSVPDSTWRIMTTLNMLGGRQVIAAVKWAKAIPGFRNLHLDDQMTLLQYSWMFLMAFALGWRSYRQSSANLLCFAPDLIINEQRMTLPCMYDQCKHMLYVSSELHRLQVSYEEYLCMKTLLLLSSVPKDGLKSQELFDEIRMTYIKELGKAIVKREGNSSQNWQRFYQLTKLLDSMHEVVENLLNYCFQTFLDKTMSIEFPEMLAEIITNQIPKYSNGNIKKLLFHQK
Method: COS-7 cells (ATCC, Manassas, Va.) were plated in 24 well plates in DME+5% csFBS without phenol red at 70,000 cells/well. Once the cells attached to the plates (typically after overnight incubation after plating), they were transfected in OPTIMEM medium (Life Technologies) using lipofectamine reagent (Life Technologies) with 0.25 μg GRE-LUC, 25 ng pCR3.1 GR, and 10 ng CMV-renilla LUC per well. Twenty-four hours after transfection, the cells were fed with DME+5% csFBS without phenol red (Fisher Scientific, Waltham, Mass.) and treated with the test compounds (1 μM to 10 μM dose range) in the presence of 0.1 nM dexamethasone (Sigma, St. Louis, Mo.). Sixteen to twenty-four hours after treatment, a luciferase assay was performed using the Dual Luciferase assay kit (Promega, Madison, Wis.). Firefly luciferase values were normalized to Renilla luciferase numbers.

Human AR = molecular target: T2, Human AR (Homo sapiens, UniProt P10275); assay: AR antagonist assay (GRE-LUC luciferase reporter, with 0.1 nM R1881); type: cell-based; details: read-out: AR Antagonism IC50
T2 construct: expressed in transfected cells; host or cells: HEK-293 cells
T2 sequence (P10275 1-920): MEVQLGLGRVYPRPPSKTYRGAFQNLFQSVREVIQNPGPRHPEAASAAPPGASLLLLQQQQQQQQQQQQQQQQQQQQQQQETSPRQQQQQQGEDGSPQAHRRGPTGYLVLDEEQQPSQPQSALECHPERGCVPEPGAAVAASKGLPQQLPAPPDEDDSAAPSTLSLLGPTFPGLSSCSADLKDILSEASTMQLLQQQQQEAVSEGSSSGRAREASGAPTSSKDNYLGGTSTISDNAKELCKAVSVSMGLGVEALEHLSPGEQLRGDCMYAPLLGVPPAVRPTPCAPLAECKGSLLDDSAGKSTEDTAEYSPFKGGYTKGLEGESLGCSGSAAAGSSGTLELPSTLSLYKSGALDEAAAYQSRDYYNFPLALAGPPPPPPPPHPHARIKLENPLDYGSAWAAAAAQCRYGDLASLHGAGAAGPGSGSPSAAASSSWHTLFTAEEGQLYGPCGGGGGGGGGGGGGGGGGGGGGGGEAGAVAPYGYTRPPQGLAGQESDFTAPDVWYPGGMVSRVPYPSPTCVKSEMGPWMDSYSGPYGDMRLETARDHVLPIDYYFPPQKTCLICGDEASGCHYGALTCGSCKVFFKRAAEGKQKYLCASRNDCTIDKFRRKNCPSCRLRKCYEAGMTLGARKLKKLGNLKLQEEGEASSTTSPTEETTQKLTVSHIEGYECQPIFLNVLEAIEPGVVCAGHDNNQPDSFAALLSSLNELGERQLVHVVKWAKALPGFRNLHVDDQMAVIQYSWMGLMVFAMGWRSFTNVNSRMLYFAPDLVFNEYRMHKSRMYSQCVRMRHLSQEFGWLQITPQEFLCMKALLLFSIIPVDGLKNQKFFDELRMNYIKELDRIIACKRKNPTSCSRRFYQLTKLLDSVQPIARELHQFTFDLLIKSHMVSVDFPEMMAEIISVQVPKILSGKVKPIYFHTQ
Method: Human AR cDNA cloned into pCMV vector, GRE-LUC, and CMV-renilla-LUC were used to transfect cells. HEK-293 cells (ATCC) were plated at 120,000 cells per well of a 24 well plate in DME+5% csFBS (Fisher Scientific, Waltham, Mass.). The cells were transfected using Lipofectamine (Life Technologies, Carlsbad, Calif.) with 0.25 μg GRE-LUC, 0.010 μg CMV-LUC (renilla luciferase) and 25 ng of the AR. […] Luciferase assay was performed 48 hrs after transfection. Firefly luciferase assay values were normalized to renilla luciferase values and were graphed using graphpad prism software (La Jolla, Calif.).

LNCaP-abl cells = assay: Cell proliferation assay, LNCaP-abl (CellTiter-Glo); type: cell-based; details: three days
Method: LNCaP-abl (3,000 cells/well, received from Dr. Myles Brown, Dana Farber Cancer Institute), 22RV 1 (1,000 cells/well), LNCaP (5,000 cells/well), or COS (3,000 cells/well) cells were plated in 96 well plates in 50 μl RPMI+10% FBS (Fisher Scientific, Waltham, Mass.). LNCaP, COS, and 22RV 1 cells were obtained from ATCC. Cells were treated in RPMI+10% FBS with test articles, ranging from 1 nM to 10 μM. Three days later, viable cells (LNCaP-abl, 22RV 1, and COS) were measured by CellTiter-Glo assay (Promega, Madison, Wis.). For LNCaP cells, medium containing test article was changed after 3 days of treatment, and after an additional 3 days of culture, viable cells were measured by CellTiter-Glo assay.

| SMILES | IC50 (GR) [µM] | IC50 (Human AR) [µM] | cell proliferation, % of vehicle at 3 μM (LNCaP-abl cells) [%] | cell proliferation, % of vehicle at 10 μM (LNCaP-abl cells) [%] |
| --- | --- | --- | --- | --- |
| Cc1ncsc1C(=O)NCc1ccc(-n2ccc(-c3ccc(C#N)c(C(F)(F)F)c3)n2)cc1F [Compound 15] | > 10 | 0.28 | 66 | 3 |
| N#Cc1ccc(-c2ccn(-c3ccc(CNC(=O)c4ccccn4)c(F)c3)n2)cc1C(F)(F)F [Compound 16] | > 10 | > 10 | 89 | 98 |

Reference: patent US11034669B2, “Pyrrole and pyrazole compounds and methods of use thereof” (Nuvation Bio Inc., priority 2018, dated 2021)
